Measurements taken from patent publication US12037346B2, “Amino-substituted heteroaryls for treating cancers with EGFR mutations” (Nuvalent, Inc., priority 2021, dated 2024).

Experiments:
Type in all cases: cell-based
[1] = tested on: NCI-H1781 cells (HER2-A775_G776insV-G776C); test: Cell proliferation assay (CellTiter-Glo), NCI-H1781; settings: first inflexion of biphasic curve
Experimental: (§1) Besides Ba/F3s, two commercially available cell lines were also used. NCI-H1781 is a HER2 exon20 insertion cell line bearing HER2-A775_G776insV-G776C. A431 bears amplification of the wild-type EGFR gene.
(§2) Ba/F3 cells were plated at 1,000 cells/well (40 μL), or NCI-H1781 or A431 cells were plated at 2,000 cells/well (40 μL), in a 384-well plate for 1 day. Test compounds (40 nL) were then added in a 3-fold dilution series using the TECAN EV0200 liquid handler and incubated for 48 hours (“2 days”), 72 hours (“3 days”), or 48 hours followed by renewal of compound solutions and further incubation for 72 hours (“2 days/3 days”). The 72-hour assay was necessary for NCI-H1781 cells, which are slow-growing, and the resupply of fresh compounds on day 3 obviated the potential confounding effects arising from compound degradation in cell media over 72 hours. Plates were equilibrated at room temperature for 15 minutes followed by addition of 40 μL CellTiter-Glo reagent (Promega). Luminescence was measured on a plate reader. Half-maximal inhibitory concentration (IC50) was calculated from percent inhibition and inhibitor concentration using four-parameter logistic regression. […] In these cases, the regression curve was drawn only for the first inflexion to accurately measure on-target growth inhibitory effect.
(§3) Ba/F3, NCI-H1781, and A431 proliferation is driven by the oncogenes in the same way that cancer cell proliferation in humans is driven by the expression of equivalent oncogenes.

[2] = tested on: A431 cells (amplification of the wild-type EGFR gene), phospho-ERK Thr202/Tyr204; test: Cellular phosphorylation assay, pERK (phospho-ERK Thr202/Tyr204 AlphaLISA) in A431; settings: Homo sapiens, A-431, compound incubated for 5 hours
Experimental: as §1
(§4) Ba/F3 cells were plated at 50,000 cells/well (40 μL), or NCI-H1781 cells or A431 cells were plated at 12,500 cells/well (40 μL), in a 384-well plate for 1 day. Test compounds (40 nL) were then added in a 3-fold dilution series using the TECAN EV0200 liquid handler and incubated for 5 hours. Only for pEGFR analysis in A431, the cells were briefly stimulated with EGF (30 ng/mL) for 15 minutes. Media were removed using Apricot Designs. Phosphoproteins were analyzed using the phospho-EGFR Tyr1068 AlphaLISA kit (“pEGFR”; PerkinElmer #ALSU-PEGFR-B10K;) phospho-ERK Thr202/Tyr204 AlphaLISA kit (“pERK”; PerkinElmer #ALSU-PERK-A10K) or the phospho-ErbB2 Tyr1221/1222 AlphaLISA kit (“pHER2”; PerkinElmer #ALSU-PEB2-A10K;) according to the manufacturer's instructions. Briefly, cells were lysed with lysis buffer (10 μL) containing protease-inhibitor and phosphatase-inhibitor cocktails. The lysates were transferred into a new optical plate, incubated with the acceptor mix (5 μL) for 1.5-2 hours at room temperature in darkness, and then mixed with the donor mix (5 μL) overnight in darkness. Fluorescence was measured on a plate reader using the appropriate AlphaLISA settings. Half-maximal inhibitory concentration (IC50) was calculated from percent inhibition and inhibitor concentration using four-parameter logistic regression. […]

[3] = target: T1, HER2-A775_G776insV-G776C (NCI-H1781 cells) (Homo sapiens, UniProt P04626, G776C/INS775V); test: Cellular phosphorylation assay, pHER2 (phospho-ErbB2 Tyr1221/1222 AlphaLISA) in NCI-H1781; settings: compound incubated for 5 hours
T1 construct: NCI-H1781 is a HER2 exon20 insertion cell line bearing HER2-A775_G776insV-G776C; endogenous in cells; host or cells: NCI-H1781
Experimental: as §1
Ba/F3 cells were plated at 50,000 cells/well (40 μL), or NCI-H1781 cells or A431 cells were plated at 12,500 cells/well (40 μL), in a 384-well plate for 1 day. Test compounds (40 nL) were then added in a 3-fold dilution series using the TECAN EV0200 liquid handler and incubated for 5 hours. Only for pEGFR analysis in A431, the cells were briefly stimulated with EGF (30 ng/mL) for 15 minutes. Media were removed using Apricot Designs. Phosphoproteins were analyzed using the phospho-EGFR Tyr1068 AlphaLISA kit (“pEGFR”; PerkinElmer #ALSU-PEGFR-B10K;) phospho-ERK Thr202/Tyr204 AlphaLISA kit (“pERK”; PerkinElmer #ALSU-PERK-A10K) or the phospho-ErbB2 Tyr1221/1222 AlphaLISA kit (“pHER2”; PerkinElmer #ALSU-PEB2-A10K;) according to the manufacturer's instructions. Briefly, cells were lysed with lysis buffer (10 μL) containing protease-inhibitor and phosphatase-inhibitor cocktails. The lysates were transferred into a new optical plate, incubated with the acceptor mix (5 μL) for 1.5-2 hours at room temperature in darkness, and then mixed with the donor mix (5 μL) overnight in darkness. Fluorescence was measured on a plate reader using the appropriate AlphaLISA settings. Half-maximal inhibitory concentration (IC50) was calculated from percent inhibition and inhibitor concentration using four-parameter logistic regression.
HER2 is phosphorylated when activated. Therefore, phospho-HER2 indicates HER2 activity in the cells.

[4] = target: T2, wild-type EGFR (A431 cells) (Homo sapiens, UniProt P00533); test: Cellular phosphorylation assay, pEGFR (phospho-EGFR Tyr1068 AlphaLISA) in A431; settings: compound incubated for 5 hours, EGF (30 ng/mL) for 15 minutes
T2 construct: A431 bears amplification of the wild-type EGFR gene; endogenous in cells; host or cells: A431
Experimental: as §1, §4

[5] = target: Ba/F3 HER2-YVMA cells (HER2-A775_G776insYVMA) (Homo sapiens, UniProt P04626, DUP772-775, cells depend on it); test: Cell proliferation assay (CellTiter-Glo), Ba/F3 HER2-YVMA; settings: read-out: Ba/F3 HER2-YVMA cell proliferation IC50
Experimental: The gene encoding HER2-A775_G776insYVMA (“HER2-YVMA”) was synthesized at GeneRay, cloned into the retroviral construct pMSCV-puro (Biovector), and packaged into retroviral particles. The virus was used to infect Ba/F3 cells (RIKEN) at multiplicity of infection=1 or 10 for 1 day. Infected cells were rescued in media (RPMI-1640 with 10% fetal bovine serum and 1% streptomycin and penicillin) supplemented with mouse IL-3 (10 ng/mL) for 2 days, and stable cell lines were selected by IL-3 withdrawal and puromycin (0.8 μg/mL) for 7 days. Monoclones were selected by single-cell dilution in IL-3-free medium containing puromycin ([…]). Transformation of desired genes was confirmed by Sanger sequencing and western blot using the following antibody: HER2 (CST #2242).
as §2, §3

T1 sequence (P04626 with tags, fused parts or gaps INS775V/G776C): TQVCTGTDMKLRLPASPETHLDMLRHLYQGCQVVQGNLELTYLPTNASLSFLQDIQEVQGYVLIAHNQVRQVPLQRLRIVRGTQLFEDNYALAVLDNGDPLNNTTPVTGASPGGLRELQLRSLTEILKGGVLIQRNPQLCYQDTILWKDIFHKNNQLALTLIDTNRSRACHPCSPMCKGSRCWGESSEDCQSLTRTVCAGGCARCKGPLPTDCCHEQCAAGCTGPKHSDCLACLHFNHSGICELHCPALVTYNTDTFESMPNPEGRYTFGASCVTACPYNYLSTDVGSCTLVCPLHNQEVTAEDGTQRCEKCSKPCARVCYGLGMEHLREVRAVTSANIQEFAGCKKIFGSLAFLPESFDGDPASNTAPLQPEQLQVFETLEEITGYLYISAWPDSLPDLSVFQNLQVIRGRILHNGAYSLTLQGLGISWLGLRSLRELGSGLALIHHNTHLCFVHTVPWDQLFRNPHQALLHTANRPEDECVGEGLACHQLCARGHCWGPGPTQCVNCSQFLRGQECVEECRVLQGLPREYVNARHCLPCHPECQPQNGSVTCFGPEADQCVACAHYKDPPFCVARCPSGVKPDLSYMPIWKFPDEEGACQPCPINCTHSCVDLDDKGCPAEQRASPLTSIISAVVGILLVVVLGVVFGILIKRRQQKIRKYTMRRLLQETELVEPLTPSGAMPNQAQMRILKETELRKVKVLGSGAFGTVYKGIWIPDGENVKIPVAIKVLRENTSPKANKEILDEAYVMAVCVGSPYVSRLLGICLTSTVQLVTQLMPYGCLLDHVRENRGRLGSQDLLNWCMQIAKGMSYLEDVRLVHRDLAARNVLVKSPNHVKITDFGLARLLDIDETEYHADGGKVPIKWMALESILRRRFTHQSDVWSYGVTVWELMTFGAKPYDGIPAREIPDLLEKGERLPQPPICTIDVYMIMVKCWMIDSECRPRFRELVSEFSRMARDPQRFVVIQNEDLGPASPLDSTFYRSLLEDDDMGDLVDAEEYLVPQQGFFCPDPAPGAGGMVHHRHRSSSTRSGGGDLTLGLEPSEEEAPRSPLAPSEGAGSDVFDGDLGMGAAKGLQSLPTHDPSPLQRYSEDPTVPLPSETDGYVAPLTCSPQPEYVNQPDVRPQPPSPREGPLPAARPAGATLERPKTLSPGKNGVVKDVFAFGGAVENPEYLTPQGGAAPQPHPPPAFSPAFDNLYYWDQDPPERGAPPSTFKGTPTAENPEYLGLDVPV
T2 sequence (P00533 25-1210): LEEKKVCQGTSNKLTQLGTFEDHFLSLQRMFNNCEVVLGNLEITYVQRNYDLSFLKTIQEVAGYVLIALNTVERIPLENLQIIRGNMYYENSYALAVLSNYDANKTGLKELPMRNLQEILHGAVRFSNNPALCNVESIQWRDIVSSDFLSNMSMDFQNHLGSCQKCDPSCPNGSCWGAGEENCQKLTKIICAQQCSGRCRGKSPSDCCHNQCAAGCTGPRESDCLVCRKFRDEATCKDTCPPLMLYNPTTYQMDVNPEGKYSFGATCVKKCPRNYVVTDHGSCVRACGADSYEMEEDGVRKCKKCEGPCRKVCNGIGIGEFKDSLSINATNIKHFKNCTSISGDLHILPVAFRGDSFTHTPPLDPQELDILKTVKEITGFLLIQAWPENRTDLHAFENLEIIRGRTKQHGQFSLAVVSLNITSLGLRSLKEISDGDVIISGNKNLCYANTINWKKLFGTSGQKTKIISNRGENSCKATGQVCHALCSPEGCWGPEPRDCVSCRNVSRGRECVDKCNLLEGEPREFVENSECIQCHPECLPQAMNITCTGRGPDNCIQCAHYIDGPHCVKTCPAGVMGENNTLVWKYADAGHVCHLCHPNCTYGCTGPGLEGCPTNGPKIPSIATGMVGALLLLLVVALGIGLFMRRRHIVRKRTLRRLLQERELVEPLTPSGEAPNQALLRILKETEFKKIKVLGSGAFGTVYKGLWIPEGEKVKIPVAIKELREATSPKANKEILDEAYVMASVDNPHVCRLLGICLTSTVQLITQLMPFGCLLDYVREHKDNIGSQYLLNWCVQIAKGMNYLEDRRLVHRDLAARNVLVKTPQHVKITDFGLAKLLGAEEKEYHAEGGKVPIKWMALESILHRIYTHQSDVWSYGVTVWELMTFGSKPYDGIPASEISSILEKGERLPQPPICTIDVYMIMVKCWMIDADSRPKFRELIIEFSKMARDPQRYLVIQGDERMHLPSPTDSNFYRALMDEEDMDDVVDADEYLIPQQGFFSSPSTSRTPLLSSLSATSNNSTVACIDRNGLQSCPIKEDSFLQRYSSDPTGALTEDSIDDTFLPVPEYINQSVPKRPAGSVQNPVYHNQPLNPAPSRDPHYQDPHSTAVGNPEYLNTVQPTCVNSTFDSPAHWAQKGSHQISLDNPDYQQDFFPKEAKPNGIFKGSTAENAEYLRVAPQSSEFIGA
Ba/F3 HER2-YVMA cells (HER2-A775_G776insYVMA), sequence (P04626 with tags, fused parts or gaps DUP772-775): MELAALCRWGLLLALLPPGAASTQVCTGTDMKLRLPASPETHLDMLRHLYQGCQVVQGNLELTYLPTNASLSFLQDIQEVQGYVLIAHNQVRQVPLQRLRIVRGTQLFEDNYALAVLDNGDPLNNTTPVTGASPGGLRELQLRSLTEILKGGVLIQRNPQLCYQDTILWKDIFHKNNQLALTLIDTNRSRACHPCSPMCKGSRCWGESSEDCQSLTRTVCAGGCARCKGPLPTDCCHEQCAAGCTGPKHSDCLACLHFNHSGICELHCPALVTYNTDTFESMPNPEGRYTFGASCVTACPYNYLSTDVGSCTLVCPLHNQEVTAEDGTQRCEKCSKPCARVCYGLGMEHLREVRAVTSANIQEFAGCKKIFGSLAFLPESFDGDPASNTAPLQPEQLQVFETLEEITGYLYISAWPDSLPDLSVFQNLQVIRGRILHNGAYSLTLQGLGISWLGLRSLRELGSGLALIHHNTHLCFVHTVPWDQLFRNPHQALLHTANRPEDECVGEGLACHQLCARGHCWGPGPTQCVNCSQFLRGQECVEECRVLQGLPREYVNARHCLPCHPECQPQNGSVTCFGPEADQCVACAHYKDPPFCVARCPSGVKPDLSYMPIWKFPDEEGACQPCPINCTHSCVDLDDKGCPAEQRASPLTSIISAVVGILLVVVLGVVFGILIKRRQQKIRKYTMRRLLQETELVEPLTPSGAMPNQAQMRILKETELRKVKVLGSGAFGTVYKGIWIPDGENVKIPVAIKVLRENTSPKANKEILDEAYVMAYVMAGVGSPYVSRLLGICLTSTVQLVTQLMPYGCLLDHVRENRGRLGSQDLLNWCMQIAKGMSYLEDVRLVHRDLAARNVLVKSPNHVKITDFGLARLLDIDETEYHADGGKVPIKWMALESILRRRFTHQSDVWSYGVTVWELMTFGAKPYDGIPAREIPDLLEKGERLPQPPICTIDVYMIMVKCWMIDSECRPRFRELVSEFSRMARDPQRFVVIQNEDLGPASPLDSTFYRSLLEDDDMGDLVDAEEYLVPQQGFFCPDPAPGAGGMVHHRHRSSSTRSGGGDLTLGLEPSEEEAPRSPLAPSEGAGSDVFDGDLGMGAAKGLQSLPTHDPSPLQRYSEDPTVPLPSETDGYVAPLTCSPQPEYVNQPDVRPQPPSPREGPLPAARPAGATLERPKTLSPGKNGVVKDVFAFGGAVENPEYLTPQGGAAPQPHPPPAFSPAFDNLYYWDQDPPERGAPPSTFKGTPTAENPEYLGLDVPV

| IC50 [1] | IC50 [2] | IC50 [3] | IC50 [4] | GI50 [5] | Compound |
| --- | --- | --- | --- | --- | --- |
| < 100 nM | 100 to 500 nM | < 100 nM | 100 to 500 nM | < 100 nM | C=CC(=O)N1CCC=C(c2ccc3ncnc(Nc4ccc(Oc5ccn6ncnc6c5)c(C)c4)c3n2)CC1 [Example 1, 1-(4-[4-[(3-methyl-4-[[1,2,4]triazolo[1,5-a]pyridin-7-yloxy]phenyl)amino]pyrido[3,2-d]pyrimidin-6-yl]-2,3,6,7-tetrahydroazepin-1-yl)prop-2-en-1-one] |
| < 100 nM | 500 to 1000 nM | < 100 nM | 500 to 1000 nM | < 100 nM | CC#CC(=O)N1CC=C(c2ccc3ncnc(Nc4ccc(Oc5ccn6ncnc6c5)c(C)c4)c3n2)CC1 [Example 2, 1-(4-(4-((4-([1,2,4]triazolo[1,5-a]pyridin-7-yloxy)-3-methylphenyl)amino)pyrido[3,2-d]pyrimidin-6-yl)-3,6-dihydropyridin-1(2H)-yl)but-2-yn-1-one] |
| 100 to 500 nM | ≥ 1000 nM | < 100 nM | ≥ 1000 nM | < 100 nM | C=CC(=O)N1CC=C(c2ccc3ncnc(Nc4ccc(Oc5ccn6ncnc6c5)c(C)c4F)c3n2)CC1 [Example 5] |
| < 100 nM | 500 to 1000 nM | < 100 nM | 100 to 500 nM | < 100 nM | C=CC(=O)N1CCN(c2ccc3ncnc(Nc4ccc(Oc5ccn6ncnc6c5)c(C)c4)c3n2)CC1 [Example 9] |
| < 100 nM | 500 to 1000 nM | < 100 nM | 500 to 1000 nM | < 100 nM | C=CC(=O)N1CC=C(c2ccc3ncnc(Nc4ccc(Oc5ccn6ncnc6c5)c(C)c4)c3n2)CC1 [Example 12] |
| < 100 nM | ≥ 1000 nM | < 100 nM | 100 to 500 nM | < 100 nM | Cc1cc(Nc2ncnc3ccc(C4=CCN(C(=O)/C=C/CN(C)C)CC4)nc23)ccc1Oc1ccn2ncnc2c1 [Example 13] |
|  | ≥ 1000 nM | < 100 nM | ≥ 1000 nM | 100 to 500 nM | C=CC(=O)N1CCCN(c2ccc3ncnc(Nc4ccc(Oc5ccn6ncnc6c5)c(C)c4)c3n2)CC1 [Example 14] |
| < 100 nM | 500 to 1000 nM | < 100 nM | 500 to 1000 nM | < 100 nM | C=CC(=O)N1CC=C(c2ncc3ncnc(Nc4ccc(Oc5ccn6ncnc6c5)c(C)c4)c3n2)CC1 [Example 18] |
|  |  | < 100 nM | ≥ 1000 nM | 100 to 500 nM | C=CC(=O)N1CC=C(c2ccc3ncnc(Nc4ccc(Oc5ccn6ncnc6c5)c(C)c4)c3c2OC)CC1 [Example 19] |
|  |  | < 100 nM | ≥ 1000 nM | 500 to 1000 nM | C=CC(=O)N1CC2(C1)CN(c1ccc3ncnc(Nc4ccc(Oc5ccn6ncnc6c5)c(C)c4)c3n1)C2 [Example 23] |
| < 100 nM | ≥ 1000 nM | < 100 nM | ≥ 1000 nM | < 100 nM | C=CC(=O)N1CCN(c2ncc3ncnc(Nc4ccc(Oc5ccn6ncnc6c5)c(C)c4F)c3n2)C[C@@H]1C [Example 49] |
| 100 to 500 nM |  | < 100 nM | ≥ 1000 nM |  | C=CC(=O)N1CCN(c2ncc3ncnc(Nc4cc(C)c(Oc5ccn6ncnc6c5)cc4F)c3n2)C[C@H]1C [Example 50] |
|  | ≥ 1000 nM | < 100 nM | ≥ 1000 nM | < 100 nM | C=CC(=O)N1CCN(c2ncc3ncnc(Nc4cc(C)c(Oc5cc(C)n6ncnc6c5)cc4F)c3n2)C[C@H]1C [Example 51] |
| < 100 nM | ≥ 1000 nM | < 100 nM | ≥ 1000 nM | < 100 nM | C=CC(=O)N1CCN(c2ncc3ncnc(Nc4ccc(Oc5ccn6ncnc6c5)c(C)c4F)c3c2F)C[C@H]1C [Example 52] |
| < 100 nM | ≥ 1000 nM | < 100 nM | ≥ 1000 nM | < 100 nM | C=CC(=O)N1CCN(c2ccc3ncnc(Nc4ccc(Oc5ccn6ncnc6c5)c(C)c4F)c3c2F)C[C@H]1C [Example 53] |
| < 100 nM | 100 to 500 nM | < 100 nM | 500 to 1000 nM | < 100 nM | C=CC(=O)N1CCC(c2ncc3ncnc(Nc4ccc(Oc5ccn6ncnc6c5)c(C)c4F)c3n2)=C[C@@H]1C [Example 54] |
|  | 100 to 500 nM | < 100 nM | ≥ 1000 nM | < 100 nM | C=CC(=O)N1CCC(c2ncc3ncnc(Nc4ccc(Oc5ccn6ncnc6c5)c(C)c4F)c3n2)=C[C@H]1C [Example 55] |
|  |  | < 100 nM | 500 to 1000 nM | < 100 nM | C=CC(=O)N1CCC=C(c2ncc3ncnc(Nc4ccc(Oc5ccn6ncnc6c5)c(C)c4F)c3n2)CC1 [Example 56] |
|  |  | < 100 nM | ≥ 1000 nM | 500 to 1000 nM | C=CC(=O)N1CC=C(c2ncc3ncnc(Nc4cc(C)c(Oc5ccn6ncnc6c5)cc4F)c3n2)C[C@@H]1C [Example 59] |
|  | ≥ 1000 nM | < 100 nM | 500 to 1000 nM | < 100 nM | C=CC(=O)N1CCC(c2ncc3ncnc(Nc4ccc(Oc5ccn6ncnc6c5)c(C(F)F)c4F)c3n2)=C[C@@H]1C [Example 60] |
|  | ≥ 1000 nM | < 100 nM | ≥ 1000 nM | < 100 nM | C=CC(=O)N1CCC(c2ncc3ncnc(Nc4ccc(Oc5ccn6ncnc6c5)c(C(F)(F)F)c4F)c3n2)=C[C@@H]1C [Example 62] |
|  | ≥ 1000 nM | 100 to 500 nM | ≥ 1000 nM | 500 to 1000 nM | C=CC(=O)N1CCN(c2ncc3ncnc(Nc4ncc(Oc5ccn6ncnc6c5)c(C)c4F)c3n2)C[C@H]1C [Example 63] |
|  | ≥ 1000 nM | < 100 nM | ≥ 1000 nM | 100 to 500 nM | C=CC(=O)N1CCN(c2ccc3ncnc(Nc4ncc(Oc5ccn6ncnc6c5)c(C)c4F)c3c2F)C[C@H]1C [Example 64] |

| Compound | IC50 [1] | IC50 [2] | IC50 [3] | IC50 [4] | GI50 [5] |
| --- | --- | --- | --- | --- | --- |
| C=CC(=O)N1CC=C(c2ccc3ncnc(Nc4ccc(Oc5ccn6ncnc6c5)c(C)c4)c3n2)C1 [Example 21] | 100 to 500 nM | ≥ 1000 nM | < 100 nM | ≥ 1000 nM | 100 to 500 nM |
